Measured values as given in patent US11371055B2, “Herbicide resistance genes” (CORTEVA AGRISCIENCE LLC, priority 2005, dated 2022).

Assays:
wildtype KY160 tobacco = assay: Cross tolerance test, wildtype tobacco; format: in vivo, Nicotiana tabacum
Text: Two to four T0 individuals surviving high rates of 2,4-D and fluroxypyr were saved from each event and allowed to self fertilize in the greenhouse to give rise to T1 seed. The T1 seed was stratified, and sown into selection trays much like that of Arabidopsis (Example 7.4), followed by selective removal of untransformed nulls in this segregating population with 560 g ai/ha glufosinate (PAT gene selection). Survivors were transferred to individual 3-inch pots in the greenhouse. These lines provided high levels of resistance to 2,4-D in the T0 generation. Improved consistency of response is anticipated in T1 plants not having come directly from tissue culture. These plants were compared against wildtype KY160 tobacco. All plants were sprayed with a track sprayer set at 187 L/ha. The plants were sprayed from a range of 140-2240 g ac/ha 2,4-D dimethylamine salt (DMA), 70-1120 g ace/ha triclopyr or 35-560 g ae/ha fluroxypyr. All applications were formulated in water. Each treatment was replicated 2-4 times. Plants were evaluated at 3 and 14 days after treatment. Plants were assigned injury rating with respect to stunting, chlorosis, and necrosis. The T1 generation is segregating, so some variable response is expected due to difference in zygosity.

[1] = system: Roundup Ready (RR) control corn hybrid (2P782); assay: Field tolerance of corn: visual injury and brace root injury, control hybrid; format: in vivo, Zea mays; settings: for visual injury: 14 DAT; for % Visual Injury 14DAT: 2P782 control
Experimental: Seeds were planted with cone planter on 40-inch row spacing at Wayside and 30 inch spacing at Fowler. […] Herbicide treatments were 2,4-D (dimethylamine salt) at 1120, 2240 and 4480 g ae/ha, triclopyr at 840 g ae/ha, fluroxypyr at 280 g ae/ha and an untreated control. The AAD-12 (v1) events contained the AHAS gene as a selectable marker. The F2 corn events were segregating so the AAD-12 (v1) plants were treated with imazethapyr at 70 g ae/ha to remove the null plants. Herbicide treatments were applied when corn reached the V6 stage using compressed air backpack sprayer delivering 187 L/ha carrier volume at 130-200 kpa pressure. Visual injury ratings were taken at 7, 14 and 21 days after treatment.

[2] = system: AAD-12 (v1) (pDAS1580) T2 tobacco plants; assay: Auxinic herbicide cross tolerance of stacked tobacco, AAD-12 T2; format: in vivo, Nicotiana tabacum
Experimental: (§1) Homozygous AAD-12 (v1) (pDAS1580) and AAD-1 (v3) (pDAB721) plants (see PCT/US2005/014737 for the latter) were both reciprocally crossed and F1 seed was collected. The F1 seed from two reciprocal crosses of each gene were stratified and treated 4 reps of each cross were treated under the same spray regimen as used for the other testing with one of the following treatments: 70, 140, 280 g ac/ha fluroxypyr (selective for the AAD-12 (v1) gene); 280, 560, 1120 g ae/ha R-dichloroprop (selective for the AAD-1 (v3) gene); or 560, 1120, 2240 g ae/ha 2,4-D DMA (to confirm 2,4-D tolerance). Homozygous T2 plants of each gene were also planted for use as controls. Plants were graded at 3 and 14 DAT.

[3] = system: AAD-1 (v3) (pDAB721) T2 tobacco plants; assay: Auxinic herbicide cross tolerance of stacked tobacco, AAD-1 T2; format: in vivo, Nicotiana tabacum
Experimental: as §1

[4] = system: AAD-12 (v1) canola events 3759(20)018.001 and 3759(18)030.001; assay: Field tolerance of canola, AAD-12 events; format: in vivo, Brassica napus
Experimental: Field level tolerance trial was conducted on two AAD-12 (v1) events 3759(20)018.001 and 3759(18)030.001 and a wild-type canola (Nex710) in Fowler, Ind. The experimental design was a randomized complete block design with 3 replications. Herbicide treatments were 2,4-D (dimethylamine salt) at 280, 560, 1120, 2240 and 4480 g ac/ha, triclopyr at 840 g ae/ha, fluroxypyr at 280 g ae/ha and an untreated control. Within each herbicide treatment, single 20 ft row/event for event 3759(18)030.0011, 3759(18)018.001 and wild-type line (Nex710) were planted with a 4 row drill on 8 inch row spacing. Herbicide treatments were applied when canola reached the 4-6 leaf stage using compressed air backpack sprayer delivering 187 L/ha carrier volume at 130-200 kpa pressure. […]

[5] = system: wild-type canola (Nex710); assay: Field tolerance of canola, wild-type; format: in vivo, Brassica napus; settings: for % Visual Injury at 14 DAT: Wild Type (Nex710)
Experimental: Field level tolerance trial was conducted on two AAD-12 (v1) events 3759(20)018.001 and 3759(18)030.001 and a wild-type canola (Nex710) in Fowler, Ind. The experimental design was a randomized complete block design with 3 replications. Herbicide treatments were 2,4-D (dimethylamine salt) at 280, 560, 1120, 2240 and 4480 g ac/ha, triclopyr at 840 g ae/ha, fluroxypyr at 280 g ae/ha and an untreated control. Within each herbicide treatment, single 20 ft row/event for event 3759(18)030.0011, 3759(18)018.001 and wild-type line (Nex710) were planted with a 4 row drill on 8 inch row spacing. Herbicide treatments were applied when canola reached the 4-6 leaf stage using compressed air backpack sprayer delivering 187 L/ha carrier volume at 130-200 kpa pressure. Visual injury ratings were taken at 7, 14 and 21 days after application.

[6] = AAD-12 event 3759(18)030.001, 280 GM AE/HA
[7] = AAD-12 event 3759(20)018.001, 280 GM AE/HA
[8] = 2× rate of triclopyr (840 g ae/ha), 14 DAT

CNC.O=C(O)COc1ccc(Cl)cc1Cl [2,4-D DMA]
Average % Injury of Replicates 14 DAT (wildtype KY160 tobacco; 140 g ae/ha): 45%
Average % Injury of Replicates 14 DAT (wildtype KY160 tobacco; 560 g ae/ha): 60%
Average % Injury of Replicates 14 DAT (wildtype KY160 tobacco; 2240 g ae/ha): 73%

O=C(O)COc1ccc(Cl)cc1Cl [2,4-D, 2,4-dichlorophenoxyacetic acid]
visual injury ([1]; 2,4-D at 4480 g ae/ha, V6 stage): 44%
% Visual Injury 14DAT ([1]; 1120 g ae/ha): 9%
% Visual Injury 14DAT ([1]; 2240 g ae/ha): 20%
% Visual Injury 14DAT ([1]; 4480 g ae/ha): 34%
brace root injury ([1]; 4480 g ae/ha of 2,4-D): severe brace root fusing and malformation
Brace Root Injury Rating (0-10 scale) 28DAT ([1]; Wild-type NK603, 1120 g ae/ha): 3
Brace Root Injury Rating (0-10 scale) 28DAT ([1]; Wild-type NK603, 2240 g ae/ha): 5
Brace Root Injury Rating (0-10 scale) 28DAT ([1]; Wild-type NK603, 4480 g ae/ha): 6
Average % injury 14 DAT ([2]; 560 g ae/ha): 0%
Average % injury 14 DAT ([2]; 1120 g ae/ha): 0%
Average % injury 14 DAT ([2]; 2240 g ae/ha): 0%
Average % injury 14 DAT ([3]; 560 g ae/ha): 0%
Average % injury 14 DAT ([3]; 1120 g ae/ha): 4%
Average % injury 14 DAT ([3]; 2240 g ae/ha): 9%
average injury ([4]; 2,4-D at the 1× rate, 14DAT): 2%
average injury ([4]; 2,4-D at the 2× rate, 14DAT): 3%
average injury ([4]; 2,4-D at the 4× rate, 14DAT): 2%
% Visual Injury at 14 DAT [4, 6]: 0 b %
% Visual Injury at 14 DAT ([4]; AAD-12 event 3759(18)030.001, 560 GM AE/HA): 0 b %
% Visual Injury at 14 DAT ([4]; AAD-12 event 3759(18)030.001, 1120 GM AE/HA): 2 ab %
% Visual Injury at 14 DAT ([4]; AAD-12 event 3759(18)030.001, 2240 GM AE/HA): 3 ab %
% Visual Injury at 14 DAT [4, 7]: 0 a %
% Visual Injury at 14 DAT ([4]; AAD-12 event 3759(20)018.001, 560 GM AE/HA): 0 a %
% Visual Injury at 14 DAT ([4]; AAD-12 event 3759(20)018.001, 1120 GM AE/HA): 2 a %
% Visual Injury at 14 DAT ([4]; AAD-12 event 3759(20)018.001, 2240 GM AE/HA): 3 a %
visual injury ([5]; 2,4-D at 2240 g ae/ha (4× rate), 14DAT): 72%
% Visual Injury at 14 DAT ([5]; 280 GM AE/HA): 0 e %
% Visual Injury at 14 DAT ([5]; 560 GM AE/HA): 15 d %
% Visual Injury at 14 DAT ([5]; 1120 GM AE/HA): 33 bc %
% Visual Injury at 14 DAT ([5]; 2240 GM AE/HA): 48 a %

C[C@@H](Oc1ccc(Cl)cc1Cl)C(=O)O [(R)-dichlorprop, R-2,4-dichlorophenoxypropionic acid]
Average % injury 14 DAT ([2]; 280 g ae/ha): 15%
Average % injury 14 DAT ([2]; 560 g ae/ha): 50%
Average % injury 14 DAT ([2]; 1120 g ae/ha): 70%
Average % injury 14 DAT ([3]; 280 g ae/ha): 0%
Average % injury 14 DAT ([3]; 560 g ae/ha): 0%
Average % injury 14 DAT ([3]; 1120 g ae/ha): 3%

Nc1c(Cl)c(F)nc(OCC(=O)O)c1Cl [Fluroxypyr]
% Visual Injury 14DAT ([1]; 280 g ae/ha): 11%
brace root injury ([1]; Fluroxypyr at 280 g ae/ha): moderate brace root swelling and wandering
visual injury ([1]; Fluroxypyr at 280 g ae/ha): 11%
Brace Root Injury Rating (0-10 scale) 28DAT ([1]; Wild-type NK603, 280 g ae/ha): 2
Average % Injury of Replicates 14 DAT (wildtype KY160 tobacco; 35 g ae/ha): 85%
Average % Injury of Replicates 14 DAT (wildtype KY160 tobacco; 140 g ae/ha): 93%
Average % Injury of Replicates 14 DAT (wildtype KY160 tobacco; 560 g ae/ha): 100%
Average % injury 14 DAT ([2]; 70 g ae/ha): 0%
Average % injury 14 DAT ([2]; 140 g ae/ha): 0%
Average % injury 14 DAT ([3]; 70 g ae/ha): 40%
Average % injury 14 DAT ([3]; 140 g ae/ha): 60%
% Visual Injury at 14 DAT [4, 6]: 8 a %
% Visual Injury at 14 DAT [4, 7]: 7 a %
average injury ([4]; Fluroxypyr at 280 g ae/ha, 5DAT): 8%
visual injury ([5]; Fluroxypyr at 280 g ae/ha, 14DAA): 37%
% Visual Injury at 14 DAT ([5]; 280 GM AE/HA): 37 ab %

O=C(O)COc1nc(Cl)c(Cl)cc1Cl [triclopyr]
% Visual Injury 14DAT ([1]; 840 g ae/ha): 31%
visual injury ([1]; 2× rate of triclopyr (840 g ae/ha)): 31%
average brace root injury score (0-10 scale) ([1]; Triclopyr at 840 g ae/ha, 28DAT): 7
Brace Root Injury Rating (0-10 scale) 28DAT ([1]; Wild-type NK603, 840 g ae/ha): 7
Average % Injury of Replicates 14 DAT (wildtype KY160 tobacco; 70 g ae/ha): 40%
Average % Injury of Replicates 14 DAT (wildtype KY160 tobacco; 280 g ae/ha): 65%
Average % Injury of Replicates 14 DAT (wildtype KY160 tobacco; 1120 g ae/ha): 80%
average injury across the two events [4, 8]: 6%
% Visual Injury at 14 DAT ([4]; AAD-12 event 3759(18)030.001, 840 GM AE/HA): 6 ab %
% Visual Injury at 14 DAT ([4]; AAD-12 event 3759(20)018.001, 840 GM AE/HA): 6 a %
visual injury [5, 8]: 25%
% Visual Injury at 14 DAT ([5]; 840 GM AE/HA): 25 cd %
